Where a name gives a salt, the structure may show the parent alone.
Key:
MMP 1 = biological target: T1, MMP 1 (Homo sapiens, UniProt P03956); experiment: MMP Inhibitor Fluorimetric Profiling kit, MMP 1; type: biochemical; settings: for IC50: read-out: MMP 1 inhibition IC50; for inhibition at 20 µM: test compound 20 μM
T1 construct: recombinant human MMP-1-10, 12, 13 and 14 catalytic domains; purchased Biornol, USA
T1 sequence (P03956 98-276 limits assumed): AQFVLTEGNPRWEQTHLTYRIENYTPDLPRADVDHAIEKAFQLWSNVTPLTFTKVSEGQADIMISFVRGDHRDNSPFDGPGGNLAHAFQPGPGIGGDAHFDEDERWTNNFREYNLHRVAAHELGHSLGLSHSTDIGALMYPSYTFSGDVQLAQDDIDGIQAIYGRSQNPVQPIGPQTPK
Method: (§1) Inhibition of matrix metalloproteinase enzymes by synthesized selenopheno[3,2-h]chromenes I-1-I-4 was detected on MMP Inhibitor Fluorimetric Profiling kit using NNGH (N-isobutyl-N-4-methoxyphenylsulfonyl)glycyl-hydroxamic acid) as a standard.
(§2) MMP assay: Inhibitors of matrix metalloproteinase enzymes were detected with the use of MMP Inhibitor Fluorimetric Profiling kit (Biornol, USA) accordingly to manufacturer's instructions. MMP activity assays were performed in 96-well plates using the recombinant human MMP-1-10, 12, 13 and 14 catalytic domains and OmniMMP™ fluorogenic substrate SEQ ID No 1: Mca-Pro-Leu-Gly-Leu-Dpa-Ala-Arg-NH2. The test compounds (20 μM) were dissolved in DMSO. The compound NNGH (N-isobutyl-N-(4-methoxyphenylsulfonyl)-glycylhydroxamic acid) was used as a prototypic control inhibitor. The rate of substrate hydrolysis was determined by fluorescence intensity measuring for 10 minutes at 37° C. temperature using a fluorescence plate reader (Tecan infinite M1000, Austria) with excitation at 328 nm and emission at 420 nm. Data analysis was performed using program Graph Pad Prism® 3.0.

MMP 2 = biological target: T2, MMP 2 (Homo sapiens, UniProt P08253); experiment: MMP Inhibitor Fluorimetric Profiling kit, MMP 2; type: biochemical; settings: for IC50: read-out: MMP 2 inhibition IC50; for inhibition at 20 µM: test compound 20 μM
T2 construct: recombinant human MMP-1-10, 12, 13 and 14 catalytic domains; purchased Biornol, USA
Method: as §1, §2

MMP 3 = biological target: T3, MMP 3 (Homo sapiens, UniProt P08254); experiment: MMP Inhibitor Fluorimetric Profiling kit, MMP 3; type: biochemical; settings: for IC50: ne = no effect, read-out: MMP 3 inhibition IC50; for inhibition at 20 µM: test compound 20 μM
T3 construct: recombinant human MMP-1-10, 12, 13 and 14 catalytic domains; purchased Biornol, USA
Method: as §1, §2

MMP 7 = biological target: T4, MMP 7 (Homo sapiens, UniProt P09237); experiment: MMP Inhibitor Fluorimetric Profiling kit, MMP 7; type: biochemical; settings: for inhibition at 20 µM: test compound 20 μM
T4 construct: recombinant human MMP-1-10, 12, 13 and 14 catalytic domains; purchased Biornol, USA
T4 sequence (P09237 95-267): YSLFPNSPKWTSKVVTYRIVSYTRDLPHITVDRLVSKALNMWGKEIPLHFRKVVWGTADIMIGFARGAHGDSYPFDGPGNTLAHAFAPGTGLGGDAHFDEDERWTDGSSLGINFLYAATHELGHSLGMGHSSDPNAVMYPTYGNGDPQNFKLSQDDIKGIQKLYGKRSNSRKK
Method: as §1, §2

MMP 8 = biological target: T5, MMP 8 (Homo sapiens, UniProt P22894); experiment: MMP Inhibitor Fluorimetric Profiling kit, MMP 8; type: biochemical; settings: for IC50: read-out: MMP 8 inhibition IC50; for inhibition at 20 µM: test compound 20 μM
T5 construct: recombinant human MMP-1-10, 12, 13 and 14 catalytic domains; purchased Biornol, USA
Method: as §1, §2

MMP 9 = biological target: T6, MMP 9 (Homo sapiens, UniProt P14780); experiment: MMP Inhibitor Fluorimetric Profiling kit, MMP 9; type: biochemical; settings: for IC50: read-out: MMP 9 inhibition IC50; for inhibition at 20 µM: test compound 20 μM
T6 construct: recombinant human MMP-1-10, 12, 13 and 14 catalytic domains; purchased Biornol, USA
Method: as §1, §2

MMP 10 (stromelysin 2) = biological target: T7, MMP 10 (stromelysin 2) (Homo sapiens, UniProt P09238); experiment: MMP Inhibitor Fluorimetric Profiling kit, MMP 10; type: biochemical; settings: for IC50: read-out: MMP 10 inhibition IC50; for inhibition at 20 µM: test compound 20 μM
T7 construct: recombinant human MMP-1-10, 12, 13 and 14 catalytic domains; purchased Biornol, USA
Method: as §1, §2

MMP 12 = biological target: T8, MMP 12 (Homo sapiens, UniProt P39900); experiment: MMP Inhibitor Fluorimetric Profiling kit, MMP 12; type: biochemical; settings: for MMP 12 inhibition IC50: ne = no effect; for inhibition at 20 µM: test compound 20 μM
T8 construct: recombinant human MMP-1-10, 12, 13 and 14 catalytic domains; purchased Biornol, USA
Method: as §1, §2

MMP 13 = biological target: T9, MMP 13 (Homo sapiens, UniProt P45452); experiment: MMP Inhibitor Fluorimetric Profiling kit, MMP 13; type: biochemical; settings: for MMP 13 inhibition IC50 / IC50: ne = no effect; for inhibition at 20 µM: test compound 20 μM; for IC50: read-out: MMP 13 inhibition IC50
T9 construct: recombinant human MMP-1-10, 12, 13 and 14 catalytic domains; purchased Biornol, USA
Method: as §1, §2

MMP 14 = biological target: T10, MMP 14 (Homo sapiens, UniProt P50281); experiment: MMP Inhibitor Fluorimetric Profiling kit, MMP 14; type: biochemical; settings: for IC50: read-out: MMP 14 inhibition IC50; for inhibition at 20 µM: test compound 20 μM
T10 construct: recombinant human MMP-1-10, 12, 13 and 14 catalytic domains; purchased Biornol, USA
Method: as §1, §2

T6 sequence (P14780 107-444 limits assumed): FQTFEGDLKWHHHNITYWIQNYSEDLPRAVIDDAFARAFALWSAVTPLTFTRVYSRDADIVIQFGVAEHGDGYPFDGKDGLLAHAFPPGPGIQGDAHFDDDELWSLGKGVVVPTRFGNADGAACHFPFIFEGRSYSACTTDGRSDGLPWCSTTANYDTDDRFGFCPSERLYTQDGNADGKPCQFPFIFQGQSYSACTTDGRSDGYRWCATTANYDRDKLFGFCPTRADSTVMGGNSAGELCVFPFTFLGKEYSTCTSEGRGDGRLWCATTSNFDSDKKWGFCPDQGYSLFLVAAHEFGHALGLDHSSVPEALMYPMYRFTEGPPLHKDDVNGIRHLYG
T7 sequence (P09238 99-263 limits assumed): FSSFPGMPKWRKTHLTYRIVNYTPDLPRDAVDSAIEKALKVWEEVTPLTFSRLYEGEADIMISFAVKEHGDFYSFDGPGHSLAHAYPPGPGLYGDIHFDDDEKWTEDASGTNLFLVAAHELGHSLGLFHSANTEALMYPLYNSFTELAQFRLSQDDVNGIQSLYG
T5 sequence (P22894 100-262 limits assumed): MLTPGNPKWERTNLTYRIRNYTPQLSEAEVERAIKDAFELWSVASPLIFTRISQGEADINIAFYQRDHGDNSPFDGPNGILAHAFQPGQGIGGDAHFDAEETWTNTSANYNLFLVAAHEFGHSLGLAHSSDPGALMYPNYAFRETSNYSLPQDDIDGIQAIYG
T8 sequence (P39900 106-263 limits assumed): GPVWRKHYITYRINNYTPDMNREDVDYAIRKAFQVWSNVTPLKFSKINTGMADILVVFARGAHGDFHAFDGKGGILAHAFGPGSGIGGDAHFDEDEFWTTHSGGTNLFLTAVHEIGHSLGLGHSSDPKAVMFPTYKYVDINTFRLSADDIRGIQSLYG
T3 sequence (P08254 100-272 limits assumed): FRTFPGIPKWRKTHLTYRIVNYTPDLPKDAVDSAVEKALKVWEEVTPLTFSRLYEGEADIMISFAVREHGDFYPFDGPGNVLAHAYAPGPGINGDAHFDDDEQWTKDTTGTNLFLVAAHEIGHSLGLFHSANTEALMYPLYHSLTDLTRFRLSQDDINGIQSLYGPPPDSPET
T2 sequence (P08253 110-446 limits assumed): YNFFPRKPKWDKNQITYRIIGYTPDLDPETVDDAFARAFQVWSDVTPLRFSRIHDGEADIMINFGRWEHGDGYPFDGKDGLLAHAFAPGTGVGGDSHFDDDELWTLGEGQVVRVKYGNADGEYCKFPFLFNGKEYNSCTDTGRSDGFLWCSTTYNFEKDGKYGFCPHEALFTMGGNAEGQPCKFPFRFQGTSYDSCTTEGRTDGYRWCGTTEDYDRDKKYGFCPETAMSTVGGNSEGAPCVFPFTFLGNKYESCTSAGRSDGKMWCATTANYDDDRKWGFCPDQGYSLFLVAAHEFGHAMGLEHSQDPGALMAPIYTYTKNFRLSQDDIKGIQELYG

| SMILES | melting point | IC50 (MMP 1; ne = no effect) | inhibition at 20 µM (MMP 1) | IC50 (MMP 2; ne = no effect) | inhibition at 20 µM (MMP 2) | IC50 (MMP 3) | inhibition at 20 µM (MMP 3) | inhibition at 20 µM (MMP 7) | IC50 (MMP 8; ne = no effect) | inhibition at 20 µM (MMP 8) | IC50 (MMP 9; ne = no effect) | inhibition at 20 µM (MMP 9) | IC50 (MMP 10 (stromelysin 2); ne = no effect) | inhibition at 20 µM (MMP 10 (stromelysin 2)) | MMP 12 inhibition IC50 (MMP 12) | inhibition at 20 µM (MMP 12) | inhibition at 20 µM (MMP 13) | IC50 (MMP 14; ne = no effect) | inhibition at 20 µM (MMP 14) | MMP 7 inhibition IC50 (MMP 7; ne = no effect) | further results |
| --- | --- | --- | --- | --- | --- | --- | --- | --- | --- | --- | --- | --- | --- | --- | --- | --- | --- | --- | --- | --- | --- |
| CN1CCN(Cc2[se]c3c(ccc4cc(C(=O)NO)c(=O)oc43)c2Br)CC1 (as salt: hydrochloride) [Compound I-1, 7-Bromo-N-hydroxy-8-((4-methylpiperazin-1-yl)methyl)-2-oxo-2H-selenopheno[3,2-h]chromene-3-carboxamide hydrochloride] | > 200 °C |  |  |  |  |  |  |  |  |  |  |  |  |  |  |  |  |  |  |  |  |
| O=C(NO)c1cc2ccc3c(Br)c(CN4CCNCC4)[se]c3c2oc1=O (as salt: hydrochloride) [Compound I-2, 7-Bromo-N-hydroxy-2-oxo-8-(piperazin-1-ylmethyl)-2H-selenopheno[3,2-h]chromene-3-carboxamide hydrochloride] | > 200 °C |  |  |  |  |  |  |  |  |  |  |  |  |  |  |  |  |  |  |  |  |
| O=C(NO)c1cc2ccc3c(Br)c(CCN4CCNCC4)[se]c3c2oc1=O (as salt: hydrochloride) [Compound I-3, 7-Bromo-N-hydroxy-2-oxo-8-(2-(piperazin-1-yl)ethyl)-2H-selenopheno[3,2-h]chromene-3-carboxamide hydrochloride] | > 200 °C |  |  |  |  |  |  |  |  |  |  |  |  |  |  |  |  |  |  |  |  |
| CN1CCN(Cc2[se]c3c(ccc4cc(C(=O)NO)c(=O)oc43)c2Br)CC1 [Compound I-1, 7-Bromo-N-hydroxy-8-((4-methylpiperazin-1-yl)methyl)-2-oxo-2H-selenopheno[3,2-h]chromene-3-carboxamide hydrochloride] |  | > 20 µM | 29 ± 2% | 20 µM | 51 ± 2% | > 20 µM | 34 ± 2% | 28 ± 2% | 20 µM | 56 ± 2% | > 20 µM | 35 ± 5% | 1.92 µM | ≤ 97% | ne | 0% | 0% | 18 ± 2 µM | 58 ± 2% |  | IC50 (MMP 7; ne = no effect, read-out: MMP 7 inhibition IC50): > 20 µM; MMP 13 inhibition IC50 (MMP 13): ne |
| O=C(NO)c1cc2ccc3c(Br)c(CN4CCNCC4)[se]c3c2oc1=O [Compound I-2, 7-Bromo-N-hydroxy-2-oxo-8-(piperazin-1-ylmethyl)-2H-selenopheno[3,2-h]chromene-3-carboxamide hydrochloride] |  | 5.93 ± 0.54 µM | 94 ± 1% | 1.57 ± 0.18 µM | 98 ± 1% | > 20 µM | 31 ± 7% | 20 ± 1% | 1.64 ± 0.25 µM | 100 ± 1% | 1.48 ± 0.11 µM | 100 ± 1% | 1.37 ± 0.85 µM | 99% | ne | 5 ± 1% | 98 ± 1% | 4.35 ± 1.02 µM | 98 ± 2% | ne | MMP 1 inhibition IC50 (MMP 1; ne = no effect): 1.37+6.27 μM; MMP 2 inhibition IC50 (MMP 2; ne = no effect): 1.37+6.27 μM; MMP 8 inhibition IC50 (MMP 8; ne = no effect): 1.37+6.27 μM; MMP 9 inhibition IC50 (MMP 9; ne = no effect): 1.37+6.27 μM; MMP 10 inhibition IC50 (MMP 10 (stromelysin 2); ne = no effect): 1.37+6.27 μM; MMP 13 inhibition IC50 (MMP 13): 1.37+6.27 μM; IC50 (MMP 13): 6.27 ± 0.65 µM; MMP 14 inhibition IC50 (MMP 14; ne = no effect): 1.37+6.27 μM |
| O=C(NO)c1cc2ccc3c(Br)c(CCN4CCNCC4)[se]c3c2oc1=O [Compound I-3, 7-Bromo-N-hydroxy-2-oxo-8-(2-(piperazin-1-yl)ethyl)-2H-selenopheno[3,2-h]chromene-3-carboxamide hydrochloride] |  | 6.66 ± 0.85 µM | 94 ± 2% | 1.13 ± 0.08 µM | 100 ± 1% | > 20 µM | 35 ± 5% | 20 ± 3% | 1.61 ± 0.14 µM | 100 ± 1% | 1.06 ± 0.07 µM | 99 ± 1% | 0.96 µM | 100 ± 1% | ne | 0% | 97 ± 4% | 3.88 ± 0.99 µM | 99 ± 4% | ne | IC50 (MMP 13): 4.95 ± 1.05 µM |
| O=C(NO)c1cc2ccc3c(Br)c(CN4CCCNCC4)[se]c3c2oc1=O [Compound I-4, 8-((1,4-Diazepan-1-yl)methyl)-7-bromo-N-hydroxy-2-oxo-2H-selenopheno[3,2-h]chromene-3-carboxamide hydrochloride] |  | 5.21 ± 0.62 µM | 99 ± 8% | 1.86 ± 0.21 µM | 99 ± 6% | > 20 µM | 34 ± 8% | 16 ± 3% | 1.86 ± 0.22 µM | 100 ± 9% | 1.92 ± 0.31 µM | 99 ± 6% | 1.71 ± 0.18 µM | 99 ± 8% | ne | 7 ± 3% | 95 ± 8% | 4.04 ± 0.97 µM | 99 ± 7% | ne | IC50 (MMP 13): 4.74 ± 0.95 µM |
| COc1ccc(S(=O)(=O)N(CC(=O)NO)CC(C)C)cc1 [NNGH, N-isobutyl-N-(4-methoxyphenylsulfonyl)-glycylhydroxamic acid, reference compound] |  |  |  |  |  |  |  |  |  |  |  |  |  |  |  |  |  |  |  |  | MMP 1 inhibition (MMP 1; control inhibitor 1.3 μM): 100%; MMP 2 inhibition (MMP 2; control inhibitor 1.3 μM): 100%; MMP 3 inhibition (MMP 3; control inhibitor 1.3 μM): 100%; MMP 7 inhibition (MMP 7; control inhibitor 1.3 μM): 7.2%; MMP 8 inhibition (MMP 8; control inhibitor 1.3 μM): 100%; MMP 9 inhibition (MMP 9; control inhibitor 1.3 μM): 100%; MMP 10 inhibition (MMP 10 (stromelysin 2); control inhibitor 1.3 μM): 100%; MMP 12 inhibition (MMP 12; control inhibitor 1.3 μM): 100%; MMP 13 inhibition (MMP 13; control inhibitor 1.3 μM): 100%; MMP 14 inhibition (MMP 14; control inhibitor 1.3 μM): 100% |

— patent US12060368B2, “Selenophenochromene hydroxamic acids, preparation and use as angiogenesis inhibitors” (Latvian Institute of Organic Synthesis, priority 2018, dated 2024)
